This assay relates to BDNF-induced nuclear Arc expression in primary cortical neurons. Description: Chemogenomic screen: high-content image-based assay of BDNF-induced nuclear Arc expression (96-well). Type of assay: cell-based, mouse. The protocol:
To increase the throughput of our pharmacological screening for modulators of Arc, the above mentioned assay was adapted to cultures of mouse primary cortical neurons in 96-well plates.
All 319 compounds were initially tested at a final concentration of 16.7 µM with three biological replicates.
Screening of compounds in the chemogenomic library was carried out using DIV13 primary forebrain cortical neurons cultured on poly-L-lysine/laminin-coated 96-well plates (Ibidi USA, Madison, WI). Cells were seeded at a density of 30,000 cells per well and treated with the compound library and BDNF according to the experimental design presented in Fig. 3a. After experimental treatment, cells were processed for Arc and acetyl-H3K9 immunocytochemistry according to the protocol described above. Both antigens (Arc and acetyl-H3K9) were imaged using an IN Cell Analyzer 6000 imaging system and a ×40 objective. […] High-throughput quantification of nuclear Arc immunofluorescence signal was performed in a similar fashion than the low-throughput procedure described above but with the exception that acetyl-H3K9 was used as a nuclear mask to guide the automated quantification of nuclear Arc immunofluorescence signal.

Setting [1] is: chemogenomic (SMART) screen, BDNF-induced nuclear Arc expression, primary cortical neurons, BDNF control 19.5.
Where [2] appears, read: nuclear Arc-positive cells relative to DMSO control (BDNF), negative = decrease.
Where [3] appears, read: nuclear Arc-positive cells relative to DMSO + BDNF control, negative values = decrease.
[4] abbreviates: BDNF-induced nuclear Arc expression, primary cortical neurons, chemogenomic screen.

Where a name gives a salt, the structure may show the parent alone. Read-outs that look alike come from different tables or passages of the source.

Experimental findings from paper PMC5698418 (Nature Communications, 2017) are described below.

In the case of `C[S+](CC[C@H](N)C(=O)[O-])C[C@H]1O[C@@H](n2cnc3c(N)ncnc32)[C@H](O)[C@@H]1O` (stereo partly drawn) [S-Adenosylmethionine], the “Percentage of cell with nuclear Arc immunostaining above 2σ threshold” value (“Percentage of cell” for short) under setting [1] was determined as 12.8%. Consider `OC(CNc1ccccc1)Cn1c2ccc(Br)cc2c2cc(Br)ccc21` (stereo not drawn) [P7C3], for which the “Percentage of cell” value is listed as 1.7%. Moreover, the “Fold-change — Normalized to DMSO control (BDNF)” value (“Fold-change — Normalized” for short) under setting [2] is given as -11.2 fold. `Cn1c(=O)c2c(ncn2CC(O)CO)n(C)c1=O` (stereo not drawn) [Dyphylline]: the “Percentage of cell” value under setting [1] came out at 17.0%.

Consider `OCCOCCN1CCN(C(c2ccccc2)c2ccc(Cl)cc2)CC1` (stereo not drawn) [Hydroxyzine dihydrochloride], for which, under setting [1], the “Percentage of cell” value amounted to 27.2%. In addition, under setting [3], the “Fold-change — Normalized” value was 1.4 fold. On to `CCN(C)C(=O)Oc1cccc([C@H](C)N(C)C)c1` [Rivastigmine], for which the “Percentage of cell” value worked out at 33.7%. Besides, the “Fold-change — Normalized” value under setting [3] is 1.7 fold. On to `O=C(c1ccc(F)cc1)C1CCN(CCn2c(=O)[nH]c3ccccc3c2=O)CC1` [Ketanserin], for which the “Percentage of cell” value under setting [1] is given as 20.4%. The “Fold-change — Normalized” value under setting [3] is reported as 1.0 fold. For the molecule `COc1ccc(C(=O)N2CCCC2=O)cc1` [Aniracetam], the “Percentage of cell” value under setting [4] is listed as 8.2%.

Consider `CC(NC(C)(C)C)C(=O)c1cccc(Cl)c1` (stereo not drawn) [Bupropion], for which the “Percentage of cell” value under setting [4] turned out to be 9.0%. Still for that read-out and setting: for `O=C1NCCN1CCN1CCC(c2cn(-c3ccc(F)cc3)c3ccc(Cl)cc23)CC1` [Sertindole] the value was 0.18%.

Take `OCCOCCN1CCN(C2=Nc3ccccc3Sc3ccccc32)CC1` [Quetiapine fumarate]: under setting [1], the “Percentage of cell” value was found to be 25.9%. The “Fold-change — Normalized” value under setting [3] is given as 1.3 fold. For `COc1cccc(C2(O)CCCCC2CN(C)C)c1` (stereo not drawn) [Tramadol], the “Percentage of cell” value was 7.5%. Take `CCOc1ccc2nc(S(N)(=O)=O)sc2c1` [Ethoxzolamide]: the “Percentage of cell” value under setting [4] came to 8.4%. As to `Cc1nc2n(c(=O)c1CCN1CCC(c3noc4cc(F)ccc34)CC1)CCCC2O` (stereo not drawn) [Paliperidone], under setting [1], the “Percentage of cell” value is 15.2%. Consider `CN(C)CCC=C1c2ccccc2COc2ccccc21` [Doxepin], for which, under setting [4], the “Percentage of cell” value was found to be 10.2%. As for `COc1cc2c(NC3CCN(C4CCCCC4)CC3)nc(N3CCCN(C(C)C)CC3)nc2cc1OCCCN1CCCCC1` [UNC 0646], the “Percentage of cell” value under setting [4] is given as 5.2%. Under setting [2], the “Fold-change — Normalized” value is recorded as -3.7 fold. `O=C(CCCN1CCC(O)(c2ccc(Br)cc2)CC1)c1ccc(F)cc1` [Bromperidol]: the “Percentage of cell” value under setting [1] is on record as 28.9%. Moreover, under setting [3], the “Fold-change — Normalized” value worked out at 1.5 fold. On to `CC(C)S(=O)(=O)N[C@H]1CCOC[C@@H]1c1ccc(-c2ccc(C#N)s2)cc1` [PF 4778574], for which the “Percentage of cell” value came to 35.9%. Besides, under setting [3], the “Fold-change — Normalized” value is recorded as 1.8 fold. The matching figures for `Cc1nccc2c1[nH]c1ccccc12` [Harmane]: 38.8% and 2.0 fold.

On to `C1CCN2C[C@@H]3C[C@@H](CN4CCCC[C@@H]34)[C@H]2C1` [Sparteine], for which the “Percentage of cell” value is given as 25.6%. Also, under setting [3], the “Fold-change — Normalized” value is on record as 1.3 fold. For `CN1C(=O)CC[C@H]1c1cccnc1` [Cotinine], the “Percentage of cell” value under setting [1] came to 30.8%. Besides, the “Fold-change — Normalized” value under setting [3] was determined as 1.6 fold. Taken in the same sequence, the figures for `NC12CC3CC(CC(C3)C1)C2` [Amantadine] were 32.9% and 1.7 fold. Take `CNC(=O)N1N=C(c2ccc(N)cc2)c2cc3c(cc2CC1C)OCO3` (stereo not drawn) [GYKI-53655]: the “Percentage of cell” value under setting [1] was 35.7%. The “Fold-change — Normalized” value under setting [3] is recorded as 1.8 fold. Taken in the same sequence, the figures for `CCc1c(C)[nH]c2c1C(=O)C(CN1CCOCC1)CC2` (stereo not drawn) [Molindone] were 36.4% and 1.9 fold. With `O=c1cc(-c2ccc(O)c(O)c2)oc2cc(O)cc(O)c12` [Luteolin], the “Percentage of cell” value under setting [1] amounted to 22.1%. Under setting [3], the “Fold-change — Normalized” value is 1.1 fold. Taken in the same sequence, the figures for `CCN[C@H]1CN(CCCOC)S(=O)(=O)c2sc(S(N)(=O)=O)cc21` [Brinzolamide] were 28.3% and 1.5 fold. `O=c1[nH]c2cc(C(F)(F)F)c(N3CCOCC3)cc2n(CP(=O)(O)O)c1=O` [Fanapanel]: under setting [4], the “Percentage of cell” value is recorded as 8.8%. On to `CNC(=O)Oc1ccc2c(c1)[C@]1(C)CCN(C)[C@@H]1N2C` [Physostigmine], for which the “Percentage of cell” value worked out at 18.3%.

For `CN1C(=O)CCS(=O)(=O)C1c1ccc(Cl)cc1` (stereo not drawn) [Chlormezanone], the “Percentage of cell” value was found to be 25.9%. Besides, the “Fold-change — Normalized” value under setting [3] was 1.3 fold. For the molecule `COc1ccc2cc3[n+](cc2c1OC)CCc1cc2c(cc1-3)OCO2` [Berberine], the “Percentage of cell” value under setting [4] came out at 2.2%. On to `CO[C@]12C[C@@H](COC(=O)c3cncc(Br)c3)CN(C)[C@@H]1Cc1cn(C)c3cccc2c13` [Nicergoline], for which the “Percentage of cell” value under setting [4] was determined as 6.1%. As to `Cn1cc(C2=C(c3coc4ccccc34)C(=O)NC2=O)c2cc(Br)ccc21` [ING-135], the “Percentage of cell” value worked out at 34.1%. In addition, under setting [3], the “Fold-change — Normalized” value was determined as 1.7 fold. `COc1ccc(C2CNC(=O)C2)cc1OC1CCCC1` (stereo not drawn) [Rolipram]: under setting [1], the “Percentage of cell” value was 21.4%. In addition, the “Fold-change — Normalized” value under setting [3] is on record as 1.1 fold. Take `NCC(CC(=O)O)c1ccc(Cl)cc1` (stereo not drawn) [Baclofen]: the “Percentage of cell” value under setting [1] stood at 28.6%. In addition, the “Fold-change — Normalized” value under setting [3] was determined as 1.5 fold. In the case of `Cl.c1ccc2c(c1)OCC(C1=NCCN1)O2` (stereo not drawn) [Idazoxan hydrochloride, RX 781094], the “Percentage of cell” value under setting [1] was 24.1%. Under setting [3], the “Fold-change — Normalized” value was 1.2 fold. Take `CN(C)CCOC(=O)COc1ccc(Cl)cc1.Cl` [Meclofenoxate hydrochloride]: the “Percentage of cell” value worked out at 28.2%. Also, under setting [3], the “Fold-change — Normalized” value amounted to 1.4 fold. For the molecule `COc1ccc(C(CN(C)C)C2(O)CCCCC2)cc1` (stereo not drawn) [Venlafaxine], the “Percentage of cell” value was found to be 12.1%. On to `CNC(C)C1CCC(N)C(OC2C(N)CC(N)C(OC3OCC(C)(O)C(NC)C3O)C2O)O1` (stereo not drawn) [Gentamicin], for which, under setting [4], the “Percentage of cell” value was 10.3%. `COc1cc2c(cc1OC)C1CC(=O)C(CC(C)C)CN1CC2` (stereo not drawn) [Tetrabenazine]: under setting [1], the “Percentage of cell” value is reported as 24.9%. Besides, the “Fold-change — Normalized” value under setting [3] was found to be 1.3 fold. Take `NC(=O)CN1CC(O)CC1=O` (stereo not drawn) [Oxiracetam]: under setting [1], the “Percentage of cell” value was found to be 41.5%. For the same molecule, the “Fold-change — Normalized” value under setting [3] was 2.1 fold. Regarding `NC(=O)OCC(COC(N)=O)c1ccccc1` [Felbamate], the “Percentage of cell” value under setting [1] worked out at 14.3%. Take `COCCCC/C(=N\OCCN)c1ccc(C(F)(F)F)cc1` [Fluvoxamine]: the “Percentage of cell” value under setting [4] was found to be 8.5%.

On to `CC(=O)[C@H]1CC[C@H]2[C@@H]3CC[C@H]4C[C@](C)(O)CC[C@]4(C)[C@H]3CC[C@]12C` [Ganaxolone], for which the “Percentage of cell” value is 22.6%. Moreover, under setting [3], the “Fold-change — Normalized” value came to 1.2 fold. `O=C(O)c1cc2cc(O)c(O)cc2c(C(=O)c2ccc(O)c(O)c2)n1` [NBI-31772]: the “Percentage of cell” value worked out at 2.7%. The “Fold-change — Normalized” value under setting [2] is listed as -7.3 fold. With `CCC1(c2ccccc2)C(=O)NCNC1=O` [Primidone], the “Percentage of cell” value under setting [1] amounted to 17.3%. As to `O=C1[C@@H]2[C@H]3CC[C@H](C3)[C@@H]2C(=O)N1CCCCN1CCN(c2ncccn2)CC1` [Tandospirone], the “Percentage of cell” value under setting [1] was 25.7%. Further, under setting [3], the “Fold-change — Normalized” value turned out to be 1.3 fold. Taken in the same sequence, the figures for `NC(=O)N1c2ccccc2CC(=O)c2ccccc21` [Oxcarbazepine] were 23.6% and 1.2 fold. For `CN1CCCC(CC2c3ccccc3Sc3ccccc32)C1` (stereo not drawn) [Metixene], the “Percentage of cell” value under setting [4] amounted to 6.7%.

As to `O=c1[nH]c2ccccc2n1CCCN1CCC(n2c(=O)[nH]c3cc(Cl)ccc32)CC1` [Domperidone], under setting [1], the “Percentage of cell” value was found to be 15.3%. Consider `CN(C)CCc1c[nH]c2ccc(C[C@H]3COC(=O)N3)cc12` [Zolmitriptan], for which the “Percentage of cell” value under setting [1] stood at 42.5%. The “Fold-change — Normalized” value under setting [3] is recorded as 2.2 fold.
